Assay results taken from US12629382B2, “Therapy” (Vestlandets Innovasjonsselskap AS, priority 2019, dated 2026).

Tests used:
MCF7 = test: Intracellular GSH, GSH-Glo assay, MCF7 cells; assay type: cell-based; conditions: Homo sapiens, 48 h, normalized to untreated control; for activity at 250 µM: 250 μM compound, read-out: Intracellular GSH level MCF7 250 μM; for activity at 500 µM: 500 μM compound, read-out: Intracellular GSH level MCF7 500 μM
Experimental: (§1) The cancer cell lines A172, A375, U87 and MCF7 were purchased from American Type Culture Collection (ATCC; Manassas, Va., USA). Cells were cultured in Dulbecco's Modified Eagle's Medium (DMEM) supplemented with 10% fetal bovine serum, 2% v/v L-glutamine, 3.2% v/v non-essential amino acids, antibiotics 2% v/v (penicillin-streptomycin), and 0.02% v/v Plasmocin at 37° C. and 5% CO2.
(§2) xCT expression of cancer cell lines was evaluated by western blotting from protein samples of cell lysates as described in Sleire et al., Oncogene 34: 5951-5959, 2015. Protein concentrations were determined by BCA assay (Thermo Fisher Scientific, USA) followed by SDS PAGE and immunoblotting using rabbit anti-xCT (Thermo Fisher Scientific) and rabbit anti-GAPDH (Abcam, Cambridge, UK) as a loading control. The compounds were dissolved in dimethylsulfoxide (DMSO) (Sigma Aldrich, Germany) and stock concentrations of 100 mM were stored at −20° C. in aliquots. Final concentrations were made in growth medium before adding to the cell monolayers.
(§3) The compounds were evaluated based on the measurement of intracellular Glutathione (GSH) which was performed by the GSH-Glo assay (Promega, Madison, WI, USA, cat #V6912) according to the manufacturer's recommended procedures. 5000 cells per well were seeded in a flat bottomed 96-well plate. After attachment to the well surface, cells were exposed to 250 μM and 500 μM of each compound for 48 h. After that, GSH-Glo reagent was added followed by short incubation and addition of luciferin detection reagent. Bioluminescence was measured using a luminometer (Victor 3 1420 multi-label counter, Perkins Elmer, Waltham, MA, USA). IC50 doses for the compounds SAS, DC10 and DC14 were determined in A172 glioma cells, using the GraphPad Prism v6 software (GraphPad Software, Inc. CA, USA). All measurements were normalized to the untreated control and were performed three times.

A172 glioma cells = test: Intracellular GSH, GSH-Glo assay, A172 cells; assay type: cell-based; conditions: Homo sapiens, 48 h, normalized to untreated control; for activity at 250 µM: A 172, 250 μM compound, read-out: Intracellular GSH level A172 250 μM; for activity at 500 µM: A 172, 500 μM compound, read-out: Intracellular GSH level A172 500 μM
Experimental: as §1, §2, §3

xCT antiport = biological target: T1, xCT antiport (Homo sapiens, UniProt Q9UPY5); conditions: reported in the literature; cited from earlier work
T1 sequence (Q9UPY5 1-501): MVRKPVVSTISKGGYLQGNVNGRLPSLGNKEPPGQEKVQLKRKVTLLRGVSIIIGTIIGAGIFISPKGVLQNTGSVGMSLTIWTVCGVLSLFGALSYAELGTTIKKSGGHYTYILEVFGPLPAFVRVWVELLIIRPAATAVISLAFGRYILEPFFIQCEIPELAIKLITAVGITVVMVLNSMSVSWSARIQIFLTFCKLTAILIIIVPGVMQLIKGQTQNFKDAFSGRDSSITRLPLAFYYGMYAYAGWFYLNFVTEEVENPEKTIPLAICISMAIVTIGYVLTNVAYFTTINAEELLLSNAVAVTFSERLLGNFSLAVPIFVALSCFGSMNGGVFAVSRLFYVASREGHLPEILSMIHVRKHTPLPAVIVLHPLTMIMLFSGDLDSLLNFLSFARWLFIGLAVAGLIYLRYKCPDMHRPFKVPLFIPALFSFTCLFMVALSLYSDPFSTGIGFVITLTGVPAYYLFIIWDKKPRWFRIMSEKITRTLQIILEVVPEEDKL
T1 sequence (P08195 1-529 partner): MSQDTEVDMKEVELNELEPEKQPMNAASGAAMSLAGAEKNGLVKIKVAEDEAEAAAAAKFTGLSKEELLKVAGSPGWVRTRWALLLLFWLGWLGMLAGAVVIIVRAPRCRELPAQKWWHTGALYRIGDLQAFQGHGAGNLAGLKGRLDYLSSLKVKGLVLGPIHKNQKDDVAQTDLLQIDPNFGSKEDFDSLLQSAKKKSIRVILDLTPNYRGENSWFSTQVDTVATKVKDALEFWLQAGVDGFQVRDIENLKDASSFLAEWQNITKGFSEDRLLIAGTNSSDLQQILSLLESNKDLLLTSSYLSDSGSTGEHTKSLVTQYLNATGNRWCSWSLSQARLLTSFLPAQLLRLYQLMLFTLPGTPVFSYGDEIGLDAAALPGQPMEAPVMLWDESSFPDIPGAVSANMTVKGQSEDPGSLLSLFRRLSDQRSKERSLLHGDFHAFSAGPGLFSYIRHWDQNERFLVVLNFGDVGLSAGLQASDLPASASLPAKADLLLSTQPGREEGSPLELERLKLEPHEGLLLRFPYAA

U87 = test: Intracellular GSH, GSH-Glo assay, U87 cells; assay type: cell-based; conditions: Homo sapiens, U-87 MG, 48 h, normalized to untreated control; for activity at 250 µM: 250 μM compound, read-out: Intracellular GSH level U87 250 μM; for activity at 500 µM: 500 μM compound, read-out: Intracellular GSH level U87 500 μM
Experimental: as §1, §2, §3

A375 = test: Intracellular GSH, GSH-Glo assay, A375 cells; assay type: cell-based; conditions: Homo sapiens, 48 h, normalized to untreated control; for activity at 250 µM: A-375, 250 μM compound, read-out: Intracellular GSH level A375 250 μM; for activity at 500 µM: A-375, 500 μM compound, read-out: Intracellular GSH level A375 500 μM
Experimental: as §1, §2, §3

[1] = Assessment of toxicity associated with DC10 in mice; assay type: in vivo; conditions: 16 mg by oral gavage, NOD/Scid mice, 24 or 48 hours
Source text: (§4) Experiments were approved by the Norwegian Animal Research Authority (Oslo, Norway) in accordance with the Guide for the Care and Use of Laboratory Animals (Institute for Laboratory Animal Research, National Research Council. Washington, D.C.: National Academy Press, 1996). NOD/Scid mice were kept at the animal facility at Department of Biomedicine at the University of Bergen. The animals were provided a standard pellet diet and tap water ad libitum. They were kept in a pathogen free environment at a constant temperature and humidity, and standard 12/12 h light and dark cycle.
DC10 was dissolved in distilled water and administered as a slurry by oral gavage. 16 mg was administered in a volume of 0.2 ml to each animal. […] Blood was sampled through heart puncture with a 3 ml syringe and 0.75 to 1 ml blood was collected. 250 μl was transferred to EDTA tubes that were tilted 15 times to avoid coagulation. The remaining volumes were transferred to 1.5 ml cryotubes and left to coagulate for 3 minutes before centrifugation at 2200 RCF for 10 minutes. This was followed by transfer of the supernatant to new cryotubes that were kept at −20° C., then thawed immediately prior to analysis at the clinical laboratory at Haukeland University Hospital. Blood collected on EDTA tubes underwent hematological analyses, whereas serum underwent biochemical analyses. Organs were also harvested, fixed on 4% formalin embedded in paraffin, sectioned and stained with hematoxylin and esosin.

A375 melanoma cells = test: Validation of DC10 as a radiosensitizer in vivo, subcutaneous A375 tumours; parameters: species or system NOD/Scid mice; conditions: DC10+RT: 8 mg DC10 on day 14, 4 Gy radiation at day 15, compared with control, DC10 alone
Source text: as §4
In this study 20 NOD/Scid mice were grafted with A375 melanoma cells. The A375 cell line was maintained in incubators at 37° C. and 5% CO2 prior to use in the animal experiment. A375 was cultured in DMEM (Sigma-Aldrich, St-Louis, MO, USA) with the supplement of 10% fetal bovine serum (FBS), 3.2% non-essential amino acids, 100 units/mL Penicillin/Streptomycin, […] L-glutamine (all Lonza, Cologne, Germany). Cells were passaged in vitro in medium sized 75 cm^2 culture flasks. […]
For induction of subcutaneous tumours, 5×10^5 A375 cells were injected in the right flank of 20 NOD/SCID mice, and the animals were randomly assigned to 4 groups with […]. […] Tumour growth data for the treatment groups and different time points were analysed with repeated measures for 2-way Anova analysis.

| SMILES | activity at 250 µM (MCF7) [%] | activity at 500 µM (MCF7) [%] | activity at 250 µM (A172 glioma cells) [%] | activity at 500 µM (A172 glioma cells) [%] | xCT activity (xCT antiport) | activity at 250 µM (U87) [%] | activity at 500 µM (U87) [%] | activity at 250 µM (A375) [%] | activity at 500 µM (A375) [%] | Clinical inspection [1] | Hematological analysis: hemoglobin, thrombocytes and leukocytes [1] | Histopathological examination of organs [1] | Macroscopic inspection of brain, lungs, heart, intestines, liver, kidneys and spleen [1] | Biochemical blood analysis: S-Kreatinin, γ-GT, S-ASAT, S-ALAT, Amylase, S-Glukose ([1]; serum) | Tumour volume versus the other groups (A375 melanoma cells) |
| --- | --- | --- | --- | --- | --- | --- | --- | --- | --- | --- | --- | --- | --- | --- | --- |
| O=C(O)c1cc(/N=N/c2ccc(S(=O)(=O)Nc3ccccn3)cc2)ccc1O [SAS, Sulfasalazine, reference compound] | 26.2 | 7.6 | 15 | 2.1 | blocking the cell membrane xCT antiport | 14 | 8 | 13.5 | 5.3 | – | – | – | – | – | – |
| Nc1ccc(S(=O)(=O)Nc2ccccn2)cc1 [sulfapyridine, 4-amino-N-(pyridin-2-yl)benzenesulfonamide] | – | – | – | – | without xCT activity | – | – | – | – | – | – | – | – | – | – |
| Nc1ccc(O)c(C(=O)O)c1 [mesalazine, 5-amino-2-hydroxybenzoic acid] | – | – | – | – | without xCT activity | – | – | – | – | – | – | – | – | – | – |
| O=C(O)c1cc(/C=C/c2ccc(-c3ccccc3)cc2)ccc1O [DC10, (E)-5-(2-([1,1′-biphenyl]-4-yl)vinyl)-2-hydroxybenzoic acid] | 28 | 10.9 | 10.4 | 2.3 | – | 76.1 | 7.3 | 27.6 | 3.1 | did not reveal any signs, symptoms or deficits | normal | did not show evidence of inflammation or other signs of tissue injury | appeared normal | no significant elevation in S-Kreatinin (Kidney function), or shift in γ-GT, S-ASAT, S-ALAT, Amylase and S-Glukose | significantly smaller |
